{
  "source": "paper PMC3646991",
  "about": "(Investigational new drugs, 2012)",
  "key": {"[1]": {"system": "patients with advanced solid tumors", "assay": "Phase I dose escalation: dose-limiting toxicities, MTD and adverse events"}, "[2]": {"system": "patients with advanced solid tumors", "settings": "human, in vivo, 4 weeks"}, "[3]": {"settings": "triapine 0.01–1 mg/mL in 0.9 % sodium chloride, protected from light, room temperature or 2–8°C; cited from earlier work"}, "[4]": {"assay": "Steady-state plasma triapine", "format": "in vivo, human", "settings": "for clearance: human, plasma"}, "[5]": {"system": "advanced solid tumors", "assay": "Tumor response", "format": "in vivo, human"}, "[6]": {"system": "tumor cell lines", "settings": "read-out: in vitro IC50 for tumor cell lines; cited from earlier work"}, "[7]": {"system": "human ribonucleotide reductase M2 subunit (hRRM2)", "assay": "Circulating serum hRRM2 by ELISA", "format": "in vivo", "settings": "during treatment cycles 1 and 2, 21 of 28 patients"}, "[8]": {"settings": "cited from earlier work"}, "[9]": {"settings": "36 patients, all dose levels, triapine + FDR gemcitabine"}, "[10]": {"settings": "Arm A and B combined, dose 160, N=2, individual values"}, "[11]": {"settings": "of 15 patients with stable disease"}, "[12]": {"settings": "of 30 evaluable patients, triapine + FDR gemcitabine"}, "[13]": {"settings": "of 30 evaluable patients, triapine + FDR gemcitabine, RECIST 1.0"}},
  "note": "Values joined by “and” are separate entries in the source; they are usually repeats but may differ in a detail not shown here. Equal entries are not always repeated.",
  "data": [
    {"smiles": "NC(=S)NN=Cc1ncccc1N", "note": "[triapine, 3-Aminopyridine-2-carboxaldehyde thiosemicarbazone]", "values": [
      {"measurement": "Flu-Like Syndrome, Grade 1/2", "setting": "[1]; [9]", "result": "4 (11) N (%)"},
      {"measurement": "Flu-Like Syndrome, Grade 3", "setting": "[1]; [9]", "result": "0 N (%)"},
      {"measurement": "Flu-Like Syndrome, Grade 4", "setting": "[1]; [9]", "result": "0 N (%)"},
      {"measurement": "Infection, Grade 3", "setting": "[1]; [9]", "result": "3 (8) N (%)"},
      {"measurement": "Infection, Grade 4", "setting": "[1]; [9]", "result": "0 N (%)"},
      {"measurement": "MTD (maximum tolerated dose)", "setting": "[1]; triapine 24-hour infusion immediately followed by gemcitabine 1000 mg/m^2 (100-minute infusion), every 2 weeks of a 4-week cycle", "result": 90, "unit": "mg"},
      {"measurement": "recommended phase II dose (RP2D)", "setting": "[2]", "result": 90, "unit": "mg"},
      {"measurement": "stability of admixture", "setting": "[3]", "result": 96, "unit": "h"},
      {"measurement": "Css", "setting": "[4]; Arm A and B combined, 31 patients, 75 to 160 mg over 24-hour i.v. infusion Day 1, mean ± SD", "result": "400 ± 140", "unit": "nM"},
      {"measurement": "Css", "setting": "[4]; Arm A and B combined, dose 75, N=5, mean ± SD", "result": "370 ± 50", "unit": "nM"},
      {"measurement": "Css", "setting": "[4]; Arm A and B combined, dose 90, N=15, mean ± SD", "result": "380 ± 180", "unit": "nM"},
      {"measurement": "Css", "setting": "[4]; Arm A and B combined, dose 120, N=9, mean ± SD", "result": "440 ± 120", "unit": "nM"},
      {"measurement": "CL", "setting": "[4]; [10]", "result": 42.80, "unit": "L/h"},
      {"measurement": "Css", "setting": "[4]; [10]", "result": "520 nM and 460 nM"},
      {"measurement": "Css (range)", "setting": "[4]; Arm A, 75 to 160 mg", "result": "240 to 820", "unit": "nM"},
      {"measurement": "Css", "setting": "[4]; Arm A, all doses 75 to 160 mg, mean ± SD", "result": "430 ± 140", "unit": "nM"},
      {"measurement": "Css", "setting": "[4]; Arm A, dose 75 (head prints mg/m^2), 24-h i.v. infusion, day 1 cycle 1, N=1", "result": 410, "unit": "nM"},
      {"measurement": "Css", "setting": "[4]; Arm A, dose 90, 24-h i.v. infusion, N=5, mean ± SD", "result": "450 ± 230", "unit": "nM"},
      {"measurement": "Css", "setting": "[4]; Arm A, dose 120, 24-h i.v. infusion, N=5, mean ± SD", "result": "390 ± 90", "unit": "nM"},
      {"measurement": "Css", "setting": "[4]; Arm A, dose 160, 24-h i.v. infusion, N=2, individual values", "result": "520 nM and 460 nM"},
      {"measurement": "CL", "setting": "[4]; Arm A, dose 160, N=2, individual values", "result": 42.80, "unit": "L/h"},
      {"measurement": "Css (range)", "setting": "[4]; Arm B, 75 to 120 mg", "result": "190 to 720", "unit": "nM"},
      {"measurement": "Css", "setting": "[4]; Arm B, all doses 75 to 120 mg, mean ± SD", "result": "380 ± 140", "unit": "nM"},
      {"measurement": "Css", "setting": "[4]; Arm B, dose 75, 24-h i.v. infusion, N=4, mean ± SD", "result": "360 ± 50", "unit": "nM"},
      {"measurement": "Css", "setting": "[4]; Arm B, dose 90, 24-h i.v. infusion, N=10, mean ± SD", "result": "350 ± 150", "unit": "nM"},
      {"measurement": "Css", "setting": "[4]; Arm B, dose 120, 24-h i.v. infusion, N=4, mean ± SD", "result": "470 ± 170", "unit": "nM"},
      {"measurement": "mean Css", "setting": "[4]; females, n = 18", "result": "440 ± 160", "unit": "nM"},
      {"measurement": "clearance", "setting": "[4]; intravenous, 75 mg, CL, Arm B, dose 75, N=4, mean ± SD", "result": 431, "unit": "mL/min"},
      {"measurement": "clearance", "setting": "[4]; intravenous, 90 mg, CL, Arm A, dose 90, N=5, mean ± SD", "result": 497, "unit": "mL/min"},
      {"measurement": "clearance", "setting": "[4]; intravenous, 90 mg, CL, Arm B, dose 90, N=10, mean ± SD", "result": 613, "unit": "mL/min"},
      {"measurement": "clearance", "setting": "[4]; intravenous, 120 mg, CL, Arm A and B combined, dose 120, N=9, mean ± SD", "result": 596, "unit": "mL/min"},
      {"measurement": "clearance", "setting": "[4]; intravenous, 120 mg, CL, Arm A, dose 120, N=5, mean ± SD", "result": 653, "unit": "mL/min"},
      {"measurement": "clearance", "setting": "[4]; intravenous, 120 mg, CL, Arm B, dose 120, N=4, mean ± SD", "result": 560, "unit": "mL/min"},
      {"measurement": "clearance", "setting": "[4]; intravenous, 160 mg, CL, Arm A, dose 160, N=2, individual values", "result": 635, "unit": "mL/min"},
      {"measurement": "clearance", "setting": "[4]; intravenous, CL (range), Arm A and B combined, 31 patients, 75 to 160 mg", "result": "226 to 899", "unit": "mL/min"},
      {"measurement": "clearance", "setting": "[4]; intravenous, CL (range), Arm A, 75 to 160 mg", "result": "226 to 804", "unit": "mL/min"},
      {"measurement": "clearance", "setting": "[4]; intravenous, CL (range), Arm B, 75 to 120 mg", "result": "265 to 899", "unit": "mL/min"},
      {"measurement": "clearance", "setting": "[4]; intravenous, CL, Arm A, all doses 75 to 160 mg, mean ± SD", "result": 580, "unit": "mL/min"},
      {"measurement": "clearance", "setting": "[4]; intravenous, CL, Arm B, all doses 75 to 120 mg, mean ± SD", "result": 561, "unit": "mL/min"},
      {"measurement": "clearance", "setting": "[4]; iv, CL, Arm A and B combined, 31 patients, 75 to 160 mg over 24-hour i.v. infusion Day 1, mean ± SD", "result": 562, "unit": "mL/min"},
      {"measurement": "mean Css", "setting": "[4]; males, n = 13", "result": "330 ± 80", "unit": "nM"},
      {"measurement": "variability of Css and CL (coefficient of variation)", "setting": "[4]; within and between dose groups", "result": "approximately 30%"},
      {"measurement": "median time to progression", "setting": "[5]; 15 patients with stable disease, 95 % CI 84–115 days", "result": 111, "unit": "days"},
      {"measurement": "disease control rate", "setting": "[5]; 30 evaluable patients, SD + PR, triapine + FDR gemcitabine", "result": 53, "unit": "%"},
      {"measurement": "patients with prolonged stable disease more than 3 months", "setting": "[5]; [11]", "result": 12, "unit": "patients"},
      {"measurement": "stable-disease patients who had previously progressed on gemcitabine", "setting": "[5]; [11]", "result": 7, "unit": "patients"},
      {"measurement": "partial response (number of patients)", "setting": "[5]; [12]", "result": 1, "unit": "patients"},
      {"measurement": "progressive disease (number of patients)", "setting": "[5]; [12]", "result": 14, "unit": "patients"},
      {"measurement": "stable disease (number of patients)", "setting": "[5]; [12]", "result": 15, "unit": "patients"},
      {"measurement": "partial response", "setting": "[5]; [13]", "result": 3, "unit": "%"},
      {"measurement": "stable disease", "setting": "[5]; [13]", "result": 50, "unit": "%"},
      {"measurement": "median time to tumor progression", "setting": "[5]; patients with SD", "result": "~4", "unit": "months"},
      {"measurement": "IC50", "setting": "[6]", "result": "1 to 2", "unit": "µM"},
      {"measurement": "patients with decline in hRRM2 levels", "setting": "[7]", "result": 75, "unit": "%"}
    ]},
    {"smiles": "Nc1ccn([C@@H]2O[C@H](CO)[C@@H](O)C2(F)F)c(=O)n1", "note": "[gemcitabine]", "values": [
      {"measurement": "steady-state plasma levels", "setting": "[8]; gemcitabine at fixed-dose-rate 10 mg/m^2/min", "result": "15 to 20", "unit": "µmol/L"},
      {"measurement": "plasma gemcitabine concentration above which dFdCTP accumulation is saturated", "setting": "[8]; peripheral blood mononuclear cells and circulating leukemic blasts", "result": "15 to 20", "unit": "µmol/L"}
    ]}
  ]
}
